Results as given in ChEMBL document CHEMBL4033668, “Inhibitors of cytochrome P450 (CYP) 1B1” (Eur J Med Chem, 2017).

How the values were obtained:
Cytochrome P450 1B1 [1] = target: T1, Cytochrome P450 1B1 (Homo sapiens, UniProt Q16678); test: Inhibition of human CYP1B1 expressed in Escherichia coli DH5alpha coexpressing human NADPH P450 reductase using 7-ethoxyresorufin as substrate in presence of NADP+ by spectrofluorometeric analysis
T1 sequence (Q16678 whole entry): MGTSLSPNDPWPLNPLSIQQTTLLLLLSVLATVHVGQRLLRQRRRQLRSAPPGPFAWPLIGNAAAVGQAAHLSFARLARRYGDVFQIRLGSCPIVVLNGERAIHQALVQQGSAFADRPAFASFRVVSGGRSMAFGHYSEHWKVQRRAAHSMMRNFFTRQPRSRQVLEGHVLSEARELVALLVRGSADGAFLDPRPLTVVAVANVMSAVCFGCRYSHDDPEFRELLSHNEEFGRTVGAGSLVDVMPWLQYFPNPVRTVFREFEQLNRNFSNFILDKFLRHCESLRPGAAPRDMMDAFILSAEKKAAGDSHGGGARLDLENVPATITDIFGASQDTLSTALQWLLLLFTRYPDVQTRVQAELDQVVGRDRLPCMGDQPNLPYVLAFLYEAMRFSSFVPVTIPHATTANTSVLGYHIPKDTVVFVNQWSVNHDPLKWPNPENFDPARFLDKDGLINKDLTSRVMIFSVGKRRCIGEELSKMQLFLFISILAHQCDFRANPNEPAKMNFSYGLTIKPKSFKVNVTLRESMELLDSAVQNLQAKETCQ

Cytochrome P450 1B1 [2] = target: T1, Cytochrome P450 1B1; test: Inhibition of recombinant CYP1B1 (unknown origin) expressed in supersomes coexpressing NADPH-CYP reductase using 7-ethoxyresorufin as substrate after 15 mins in presence of NADP+ by fluorescence spectrophotometric analysis
Cytochrome P450 1B1 [3] = target: T1, Cytochrome P450 1B1; test: Inhibition of recombinant CYP1B1 (unknown origin) expressed in supersomes coexpressing NADPH-CYP reductase using 7-ethoxyresorufin as substrate after 15 mins in presence of NADP+ by Lineweaver-Burk plot analysis
Cytochrome P450 1A2 [4] = target: T2, Cytochrome P450 1A2 (Homo sapiens, UniProt P05177); test: Inhibition of recombinant human CYP1A2 expressed in supersomes using 7-ethoxyresorufin O-deethylation as substrate after 5 mins in presence of NADP+ by spectrofluorimetric analysis; format: ADME
T2 sequence (P05177 whole entry): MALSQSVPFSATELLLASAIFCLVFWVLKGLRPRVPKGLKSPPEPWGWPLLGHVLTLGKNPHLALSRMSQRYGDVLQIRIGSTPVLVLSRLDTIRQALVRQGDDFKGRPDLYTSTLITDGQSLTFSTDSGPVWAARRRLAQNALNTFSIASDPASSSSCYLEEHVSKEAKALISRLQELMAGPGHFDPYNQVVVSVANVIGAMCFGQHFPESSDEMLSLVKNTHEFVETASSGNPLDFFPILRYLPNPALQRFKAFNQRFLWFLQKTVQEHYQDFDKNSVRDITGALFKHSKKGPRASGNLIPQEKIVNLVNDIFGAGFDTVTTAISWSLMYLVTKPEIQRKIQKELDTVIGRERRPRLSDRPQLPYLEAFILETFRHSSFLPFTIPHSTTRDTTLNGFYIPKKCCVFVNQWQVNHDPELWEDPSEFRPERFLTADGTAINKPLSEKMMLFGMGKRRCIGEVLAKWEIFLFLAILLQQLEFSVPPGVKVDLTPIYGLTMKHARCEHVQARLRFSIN

Cytochrome P450 1A1 [5] = target: T3, Cytochrome P450 1A1 (Homo sapiens, UniProt P04798); test: Inhibition of recombinant human CYP1A1 expressed in supersomes using 7-ethoxyresorufin O-deethylation as substrate after 5 mins in presence of NADP+ by spectrofluorimetric analysis; format: ADME
T3 sequence (P04798 whole entry): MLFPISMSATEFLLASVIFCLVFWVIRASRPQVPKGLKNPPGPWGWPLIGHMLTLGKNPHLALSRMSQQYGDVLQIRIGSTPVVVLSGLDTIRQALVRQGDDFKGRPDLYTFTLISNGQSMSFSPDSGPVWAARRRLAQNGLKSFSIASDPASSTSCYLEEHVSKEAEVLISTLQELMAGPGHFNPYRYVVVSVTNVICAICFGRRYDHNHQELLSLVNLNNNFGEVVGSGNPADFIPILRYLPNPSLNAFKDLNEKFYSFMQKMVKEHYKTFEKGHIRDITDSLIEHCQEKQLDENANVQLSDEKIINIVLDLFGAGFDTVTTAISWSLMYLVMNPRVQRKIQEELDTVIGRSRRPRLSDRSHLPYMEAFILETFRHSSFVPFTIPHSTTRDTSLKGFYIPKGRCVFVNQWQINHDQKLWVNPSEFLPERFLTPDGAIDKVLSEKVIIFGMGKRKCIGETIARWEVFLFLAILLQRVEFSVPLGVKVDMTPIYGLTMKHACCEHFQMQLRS

Cytochrome P450 1B1 [6] = target: T1, Cytochrome P450 1B1; test: Inhibition of human CYP1B1 expressed in Escherichia coli DH5alpha coexpressing human NADPH-P450 reductase using 4-estradiol as substrate in presence of NADP+ by HPLC analysis
Cytochrome P450 1B1 [7] = target: T1, Cytochrome P450 1B1; test: Inhibition of human CYP1B1 expressed in Escherichia coli DH5alpha coexpressing human NADPH-P450 reductase using 4-estradiol as substrate in presence of NADP+ by Michaelis-Menten plot analysis
Homo sapiens [8] = organism: Homo sapiens; test: Selectivity index, ratio of IC50 for human CYP1A1 expressed in Escherichia coli DH5alpha coexpressing human NADPH P450 reductase to IC50 for human CYP1B1 expressed in Escherichia coli DH5alpha coexpressing human NADPH P450 reductase
Cytochrome P450 1A2 [9] = target: T2, Cytochrome P450 1A2; test: Inhibition of CYP1A2 (unknown origin) expressed in Escherichia coli DH5alpha coexpressing human NADPH-P450 reductase using 7-Ethoxyresorufin as substrate up to 6 mins in presence of NADP+ by spectrofluorometric analysis; format: ADME
Cytochrome P450 1A1 [10] = target: T3, Cytochrome P450 1A1; test: Inhibition of CYP1A1 (unknown origin) expressed in Escherichia coli DH5alpha coexpressing human NADPH-P450 reductase using 7-Ethoxyresorufin as substrate up to 6 mins in presence of NADP+ by spectrofluorometric analysis; format: ADME
Cytochrome P450 1B1 [11] = target: T1, Cytochrome P450 1B1; test: Inhibition of CYP1B1 (unknown origin) expressed in Escherichia coli DH5alpha coexpressing human NADPH-P450 reductase using 7-Ethoxyresorufin as substrate up to 6 mins in presence of NADP+ by spectrofluorometric analysis
Cytochrome P450 1A1 [12] = target: T3, Cytochrome P450 1A1; test: Inhibition of recombinant human CYP1A1 expressed in Escherichia coli coexpressing human NADPH-cytochrome P450 reductase using 7-ethoxyresorufin as substrate by fluorescence spectrophotometric analysis; format: ADME
Homo sapiens [13] = organism: Homo sapiens; test: Selectivity index, ratio of IC50 for recombinant human CYP1A1 expressed in Escherichia coli coexpressing human NADPH-cytochrome P450 reductase to IC50 for recombinant human CYP1B1 expressed in Escherichia coli coexpressing human NADPH-cytochrome P450 reductase
Cytochrome P450 1B1 [14] = target: T1, Cytochrome P450 1B1; test: Inhibition of recombinant human CYP1B1 expressed in Escherichia coli coexpressing human NADPH-cytochrome P450 reductase using 7-ethoxyresorufin as substrate by fluorescence spectrophotometric analysis
Cytochrome P450 1B1 [15] = target: T1, Cytochrome P450 1B1; test: Inhibition of recombinant human CYP1B1 expressed in supersomes coexpressing NADPH-CYP reductase using 7-ethoxyresorufin as substrate after 15 mins in presence of NADP+ by Lineweaver-Burk plot analysis
Cytochrome P450 1A1 [16] = target: T3, Cytochrome P450 1A1; test: Inhibition of recombinant human CYP1A1 expressed in supersomes coexpressing NADPH-CYP reductase using 7-ethoxyresorufin as substrate after 15 mins in presence of NADP+ by Lineweaver-Burk plot analysis; format: ADME
Cytochrome P450 1B1 [17] = target: T1, Cytochrome P450 1B1; test: Competitive inhibition of CYP1B1 (unknown origin) expressed in yeast microsomes using (-)benzo[a]pyrene-7R-trans-7,8-dihyrodiol (B[a]P-7,8-diol) as substrate
Cytochrome P450 1B1 [18] = target: T1, Cytochrome P450 1B1; test: Inhibition of recombinant CYP1B1 (unknown origin) expressed in Escherichia coli DH5alphaF'Iq coexpressing human NADPH-P450 reductase using E2-d4 as substrate after 10 mins in presence of NADP+
Cytochrome P450 1B1 [19] = target: T1, Cytochrome P450 1B1; test: Inhibition of human CYP1B1 expressed in Escherichia coli DH5alpha coexpressing human NADPH P450 reductase using 7-ethoxyresorufin as substrate in presence of NADPH by fluorimetric analysis
Cytochrome P450 1A1 [20] = target: T3, Cytochrome P450 1A1; test: Inhibition of human CYP1A1 expressed in Escherichia coli DH5alpha coexpressing human NADPH P450 reductase using 7-ethoxyresorufin as substrate in presence of NADPH by fluorimetric analysis; format: ADME

O=c1cc(-c2ccccc2)oc2cc(O)ccc12 [7-HYDROXYFLAVONE]
IC50 (Cytochrome P450 1B1 [1]): 0.25 µM

COc1ccccc1/C=C/c1ccc(SC)cc1
Ki (Cytochrome P450 1B1 [2]): 0.3 µM
Ki (Cytochrome P450 1B1 [3]): 0.041 µM

Cc1cc(Cl)c2c(c1N)C(=O)c1ccccc1C2=O
IC50 (Cytochrome P450 1A2 [4]): 0.53 µM
IC50 (Cytochrome P450 1A1 [5]): 0.4 µM

COc1c(O)ccc2cc3[n+](cc12)CCc1cc2c(cc1-3)OCO2 [THALIDENDINE]
IC50 (Cytochrome P450 1B1 [6]): 4.1 µM

COc1ccc2cc3[n+](cc2c1OC)CCc1cc2c(cc1-3)OCO2 [BERBERINE]
Ki (Cytochrome P450 1B1 [7]): 0.044 µM
IC50 (Cytochrome P450 1B1 [6]): 0.33 µM

c1cc2ccc3cccc4ccc(c1)c2c34
Ratio IC50 (Homo sapiens [8]): 20.5

N#C[Se]Cc1ccccc1 [BENZYLSELENOCYANATE]
IC50 (Cytochrome P450 1A2 [9]): 0.2 to 1.3 µM
IC50 (Cytochrome P450 1A1 [10]): 0.1 to 0.45 µM
IC50 (Cytochrome P450 1B1 [11]): 0.13 to 0.27 µM

O=C1c2ccccc2C(=O)c2c(O)c(O)cc(O)c21 [PURPURIN]
IC50 (Cytochrome P450 1A1 [12]): 5.5 µM
Ratio IC50 (Homo sapiens [13]): 2.5
IC50 (Cytochrome P450 1B1 [14]): 2.2 µM
Ki (Cytochrome P450 1B1 [14]): 0.7 µM

N#C[Se]Cc1ccccc1C[Se]C#N
IC50 (Cytochrome P450 1A2 [9]): 0.2 to 1.3 µM
IC50 (Cytochrome P450 1A1 [10]): 0.1 to 0.45 µM
IC50 (Cytochrome P450 1B1 [11]): 0.13 to 0.27 µM

Cc1cc(O)c2c(c1)C(=O)c1cc(O)cc(O)c1C2=O [EMODIN]
IC50 (Cytochrome P450 1A2 [4]): 3.73 µM

N#C[Se]Cc1ccc(C[Se]C#N)cc1
IC50 (Cytochrome P450 1A2 [9]): 0.2 to 1.3 µM
IC50 (Cytochrome P450 1A1 [10]): 0.1 to 0.45 µM
IC50 (Cytochrome P450 1B1 [11]): 0.13 to 0.27 µM

Oc1ccc(/C=C/c2cc(O)cc(O)c2)cc1 [RESVERATROL]
Ki (Cytochrome P450 1B1 [2]): 11.2 µM
Ki (Cytochrome P450 1B1 [15]): 0.8 µM

COc1cc(O)cc(/C=C/c2ccc(O)cc2)c1
Ki (Cytochrome P450 1A1 [16]): 0.13 µM

CC(C)=CCC/C(C)=C/COc1c2ccoc2cc2oc(=O)ccc12 [BERGAMOTTIN]
Ki (Cytochrome P450 1B1 [17]): 587 µM

COc1c2ccoc2c(OC)c2oc(=O)ccc12 [ISOPIMPINELLIN]
Ki (Cytochrome P450 1B1 [17]): 11 µM

COc1c(O)ccc2c1CC[C@@H]1[C@@H]2CC[C@]2(C)[C@@H](O)CC[C@@H]12
Ki (Cytochrome P450 1B1 [18]): 149 µM

C#Cc1cc2ccc3cccc4ccc(c1)c2c34
IC50 (Cytochrome P450 1B1 [19]): 0.03 µM
IC50 (Cytochrome P450 1A1 [20]): 0.151 µM

CC[C@H]1OC(=O)[C@H](C)[C@@H](O[C@H]2C[C@@](C)(OC)[C@@H](O)[C@H](C)O2)[C@H](C)[C@@H](O[C@@H]2O[C@H](C)C[C@H](N(C)C)[C@H]2O)[C@](C)(O)C[C@@H](C)C(=O)[C@H](C)[C@@H](O)[C@]1(C)O [ERYTHROMYCIN]
IC50 (Cytochrome P450 1B1 [11]): 40 µM
